Measurements published in ChEMBL document CHEMBL6092149, “Discovery of 1(2H)-phthalazinone and 1(2H)-isoquinolinone derivatives as potent hematopoietic progenitor kinase 1 (HPK1) inhibitors” (Eur J Med Chem, 2024).

Assays:
[1] = biological target: T1, Mitogen-activated protein kinase kinase kinase kinase 1 (Homo sapiens, UniProt Q92918); test: Inhibition of HPK1 in human Jurkat cells assessed as reduction in SLP76 phosphorylation pretreated for 1 hr followed by anti-CD3 addition and measured after 15 min by ELISA method; format: cell-based
Target sequence in this assay (Q92918 whole entry): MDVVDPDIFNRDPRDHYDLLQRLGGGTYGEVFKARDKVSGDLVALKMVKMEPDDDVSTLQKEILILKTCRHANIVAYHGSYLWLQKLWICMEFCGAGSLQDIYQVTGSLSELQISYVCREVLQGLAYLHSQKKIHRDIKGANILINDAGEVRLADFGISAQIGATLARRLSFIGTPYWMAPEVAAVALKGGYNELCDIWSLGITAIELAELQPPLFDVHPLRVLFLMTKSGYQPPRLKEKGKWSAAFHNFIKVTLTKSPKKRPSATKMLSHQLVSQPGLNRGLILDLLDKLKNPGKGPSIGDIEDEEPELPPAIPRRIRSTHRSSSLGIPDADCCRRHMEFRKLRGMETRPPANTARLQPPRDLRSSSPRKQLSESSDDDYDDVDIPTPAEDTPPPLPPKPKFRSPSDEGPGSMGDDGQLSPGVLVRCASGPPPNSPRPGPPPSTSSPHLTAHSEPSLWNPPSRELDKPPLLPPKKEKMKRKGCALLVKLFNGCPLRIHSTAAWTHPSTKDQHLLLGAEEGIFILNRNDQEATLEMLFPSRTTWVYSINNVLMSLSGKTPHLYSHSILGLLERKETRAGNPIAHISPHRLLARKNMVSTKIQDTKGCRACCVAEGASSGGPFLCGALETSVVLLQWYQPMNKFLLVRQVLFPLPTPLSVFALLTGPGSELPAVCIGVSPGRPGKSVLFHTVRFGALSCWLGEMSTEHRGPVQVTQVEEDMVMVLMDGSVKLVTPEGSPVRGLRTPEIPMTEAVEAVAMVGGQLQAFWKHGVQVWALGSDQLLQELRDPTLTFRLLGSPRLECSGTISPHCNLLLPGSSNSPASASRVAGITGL

CT26 [2] = test: Antitumor activity against mouse CT26 cells allografted in female BALB/c mouse assessed as tumor growth inhibition at 3 mg/kg, ip administered twice daily and measured on 13 day in presence of presence of anti-PD-1 relative to control; format: functional; settings: CT26, 312 h, read-out: TGI
[3] = Oral bioavailability in in overnight fasted mouse at 10 mg/kg; format: ADME, organism-based; settings: in vivo
[4] = Oral bioavailability in in overnight fasted rat at 10 mg/kg; format: ADME, organism-based; settings: in vivo
[5] = Toxicity against BALB/c mouse allografted with mouse CT26 cells assessed as body weight loss at 30 mg/kg, administered orally twice daily for 2 weeks; format: organism-based; settings: in vivo, po, 336 h
[6] = biological target: Inhibitor of nuclear factor kappa-B kinase subunit beta (Homo sapiens) (UniProt O14920); test: Inhibition of IKKbeta (unknown origin) at 1000 nM incubated for 1 hrs by active site-directed competition binding assay relative to control
[7] = biological target: Tyrosine-protein kinase ITK/TSK (Homo sapiens) (UniProt Q08881); test: Inhibition of ITK (unknown origin) at 1000 nM incubated for 1 hrs by active site-directed competition binding assay relative to control
Tyrosine-protein kinase ITK/TSK (Homo sapiens), sequence (Q08881 whole entry): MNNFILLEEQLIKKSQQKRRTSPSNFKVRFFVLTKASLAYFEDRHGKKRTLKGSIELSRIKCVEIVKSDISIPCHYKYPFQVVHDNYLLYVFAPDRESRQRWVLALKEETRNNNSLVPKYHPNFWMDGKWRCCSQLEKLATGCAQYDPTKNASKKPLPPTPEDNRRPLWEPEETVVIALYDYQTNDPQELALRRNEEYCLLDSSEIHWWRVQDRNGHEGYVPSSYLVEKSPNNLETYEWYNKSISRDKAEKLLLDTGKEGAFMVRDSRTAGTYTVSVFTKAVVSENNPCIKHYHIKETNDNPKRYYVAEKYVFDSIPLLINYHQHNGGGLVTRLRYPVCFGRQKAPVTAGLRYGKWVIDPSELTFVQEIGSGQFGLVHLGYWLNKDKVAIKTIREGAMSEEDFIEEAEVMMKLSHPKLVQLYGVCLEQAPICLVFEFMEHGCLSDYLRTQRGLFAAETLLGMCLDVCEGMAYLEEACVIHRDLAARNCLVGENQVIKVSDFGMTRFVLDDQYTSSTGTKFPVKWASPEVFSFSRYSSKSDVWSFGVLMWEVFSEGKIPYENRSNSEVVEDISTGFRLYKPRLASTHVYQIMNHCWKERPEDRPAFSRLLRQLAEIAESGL

[8] = biological target: RAF proto-oncogene serine/threonine-protein kinase (Homo sapiens) (UniProt P04049); test: Inhibition of RAF1 (unknown origin) at 1000 nM incubated for 1 hrs by active site-directed competition binding assay relative to control
[9] = Toxicity in CD-1 mouse assessed as body weight loss at 1000 mg/kg, po; format: organism-based; settings: in vivo
[10] = biological target: Mitogen-activated protein kinase kinase kinase kinase 1 (Mus musculus) (UniProt P70218); test: In vivo inhibition of HPK1 in female BALB/c mouse assessed as reduction in SLP76 phosphorylation in spleen at 100 mg/kg qd, ip and measured after 24 hrs post dosing by Western blot analysis relative to control; format: functional, organism-based
Mitogen-activated protein kinase kinase kinase kinase 1 (Mus musculus), sequence (P70218 whole entry): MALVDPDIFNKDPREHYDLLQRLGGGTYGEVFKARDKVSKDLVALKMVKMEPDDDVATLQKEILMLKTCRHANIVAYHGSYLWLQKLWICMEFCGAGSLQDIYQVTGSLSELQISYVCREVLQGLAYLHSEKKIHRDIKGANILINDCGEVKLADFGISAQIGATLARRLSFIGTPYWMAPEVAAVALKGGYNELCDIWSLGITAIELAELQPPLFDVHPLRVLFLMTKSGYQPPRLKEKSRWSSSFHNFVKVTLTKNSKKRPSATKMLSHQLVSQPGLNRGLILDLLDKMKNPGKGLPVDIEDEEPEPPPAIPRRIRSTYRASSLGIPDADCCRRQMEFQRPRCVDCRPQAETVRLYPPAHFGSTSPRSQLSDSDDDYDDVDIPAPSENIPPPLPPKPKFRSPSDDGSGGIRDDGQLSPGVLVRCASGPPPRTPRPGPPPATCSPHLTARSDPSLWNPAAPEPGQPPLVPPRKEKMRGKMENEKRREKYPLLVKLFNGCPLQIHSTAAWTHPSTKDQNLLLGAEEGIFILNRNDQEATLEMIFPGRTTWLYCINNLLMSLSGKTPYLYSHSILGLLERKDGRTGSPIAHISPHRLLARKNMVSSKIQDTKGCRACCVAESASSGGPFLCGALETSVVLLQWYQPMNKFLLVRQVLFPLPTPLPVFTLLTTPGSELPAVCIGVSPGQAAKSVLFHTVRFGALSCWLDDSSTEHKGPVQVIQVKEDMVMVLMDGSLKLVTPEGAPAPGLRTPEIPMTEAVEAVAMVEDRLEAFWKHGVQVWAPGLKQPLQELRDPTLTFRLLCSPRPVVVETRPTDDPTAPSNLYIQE

[11] = biological target: Mitogen-activated protein kinase 11 (Homo sapiens) (UniProt Q15759); test: Inhibition of P38beta (unknown origin) at 1000 nM incubated for 1 hrs by active site-directed competition binding assay relative to control
[12] = Plasma Clearance in overnight fasted rat at 1 mg/kg, iv; format: ADME, organism-based
[13] = Toxicity in CD-1 mouse assessed as body weight loss at 300 mg/kg, po; format: organism-based; settings: in vivo
[14] = Cmax in overnight fasted rat at 10 mg/kg, po; format: ADME, organism-based; settings: in vivo
[15] = biological target: Mitogen-activated protein kinase kinase kinase kinase 4 (Homo sapiens, UniProt O95819); test: Inhibition of N-terminal GST-tagged recombinant human MAP4K4 (1 to 328 residues) expressed in Sf21 insect cells preincubated for 10 min followed by fluorescein PKC and ATP addition and measured after 90 min by Envision2104 Multilabel Reader analysis
[16] = biological target: Tyrosine-protein kinase ZAP-70 (Homo sapiens) (UniProt P43403); test: Inhibition of ZAP70 (unknown origin) at 1000 nM incubated for 1 hrs by active site-directed competition binding assay relative to control
[17] = biological target: Mitogen-activated protein kinase kinase kinase kinase 3 (Homo sapiens, UniProt Q8IVH8); test: Inhibition of GST-tagged recombinant human MAP4K3 (1 to 380 residues) extracted from Baculovirus infected Sf9 insect cells preincubated for 10 min followed by fluorescein PKC and ATP addition and measured after 90 min by Envision2104 Multilabel Reader analysis
Mitogen-activated protein kinase kinase kinase kinase 3, sequence (Q8IVH8 whole entry, the tested form may be a part): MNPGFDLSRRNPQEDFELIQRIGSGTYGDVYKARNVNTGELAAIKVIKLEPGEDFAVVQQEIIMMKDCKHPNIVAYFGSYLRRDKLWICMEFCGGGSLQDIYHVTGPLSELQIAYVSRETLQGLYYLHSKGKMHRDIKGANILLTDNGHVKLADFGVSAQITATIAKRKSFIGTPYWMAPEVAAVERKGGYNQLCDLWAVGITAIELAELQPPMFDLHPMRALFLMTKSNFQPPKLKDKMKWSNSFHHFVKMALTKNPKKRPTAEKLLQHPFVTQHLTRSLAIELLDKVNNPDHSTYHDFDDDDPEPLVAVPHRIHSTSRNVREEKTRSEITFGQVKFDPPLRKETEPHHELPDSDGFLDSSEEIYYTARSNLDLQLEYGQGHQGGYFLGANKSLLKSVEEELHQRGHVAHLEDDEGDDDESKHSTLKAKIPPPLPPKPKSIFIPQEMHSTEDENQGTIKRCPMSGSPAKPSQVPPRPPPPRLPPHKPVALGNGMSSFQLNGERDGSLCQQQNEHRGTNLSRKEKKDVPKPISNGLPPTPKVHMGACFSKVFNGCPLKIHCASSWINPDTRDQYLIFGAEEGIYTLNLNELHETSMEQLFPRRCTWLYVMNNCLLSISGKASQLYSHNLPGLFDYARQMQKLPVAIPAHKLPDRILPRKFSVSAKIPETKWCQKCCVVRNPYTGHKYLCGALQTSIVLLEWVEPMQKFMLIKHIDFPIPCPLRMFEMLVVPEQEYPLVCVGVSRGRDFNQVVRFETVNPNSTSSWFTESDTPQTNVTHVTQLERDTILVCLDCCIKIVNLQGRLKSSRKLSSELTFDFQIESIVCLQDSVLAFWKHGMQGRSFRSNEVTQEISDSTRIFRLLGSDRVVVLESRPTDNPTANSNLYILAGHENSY

[18] = Plasma clearance in overnight fasted mouse at 1 mg/kg, iv; format: ADME, organism-based
[19] = Half life in overnight fasted mouse at 1 mg/kg, iv; format: ADME, organism-based; settings: in vivo
[20] = Inhibition of N-terminal His-tagged recombinant human TAK1(1 to 303 residues) expressed in Sf21 insect cells preincubated for 10 min followed by inactive MEK1 and ATP addition and measured after 90 min by Envision2104 Multilabel Reader analysis
[21] = biological target: Mitogen-activated protein kinase 1 (Homo sapiens) (UniProt P28482); test: Inhibition of ERK2 (unknown origin) at 1000 nM incubated for 1 hrs by active site-directed competition binding assay relative to control
[22] = biological target: RAC-gamma serine/threonine-protein kinase (Homo sapiens) (UniProt Q9Y243); test: Inhibition of AKT3 (unknown origin) at 1000 nM incubated for 1 hrs by active site-directed competition binding assay relative to control; values are per cent of control
[23] = biological target: Mitogen-activated protein kinase kinase kinase kinase 5 (Homo sapiens, UniProt Q9Y4K4); test: Inhibition of GST-tagged recombinant human full length MAP4K5 expressed in insect cells preincubated for 10 min followed by fluorescein PKC and ATP addition and measured after 90 min by Envision2104 Multilabel Reader analysis; set-up: species or system Insect cell
Mitogen-activated protein kinase kinase kinase kinase 5, sequence (Q9Y4K4 whole entry): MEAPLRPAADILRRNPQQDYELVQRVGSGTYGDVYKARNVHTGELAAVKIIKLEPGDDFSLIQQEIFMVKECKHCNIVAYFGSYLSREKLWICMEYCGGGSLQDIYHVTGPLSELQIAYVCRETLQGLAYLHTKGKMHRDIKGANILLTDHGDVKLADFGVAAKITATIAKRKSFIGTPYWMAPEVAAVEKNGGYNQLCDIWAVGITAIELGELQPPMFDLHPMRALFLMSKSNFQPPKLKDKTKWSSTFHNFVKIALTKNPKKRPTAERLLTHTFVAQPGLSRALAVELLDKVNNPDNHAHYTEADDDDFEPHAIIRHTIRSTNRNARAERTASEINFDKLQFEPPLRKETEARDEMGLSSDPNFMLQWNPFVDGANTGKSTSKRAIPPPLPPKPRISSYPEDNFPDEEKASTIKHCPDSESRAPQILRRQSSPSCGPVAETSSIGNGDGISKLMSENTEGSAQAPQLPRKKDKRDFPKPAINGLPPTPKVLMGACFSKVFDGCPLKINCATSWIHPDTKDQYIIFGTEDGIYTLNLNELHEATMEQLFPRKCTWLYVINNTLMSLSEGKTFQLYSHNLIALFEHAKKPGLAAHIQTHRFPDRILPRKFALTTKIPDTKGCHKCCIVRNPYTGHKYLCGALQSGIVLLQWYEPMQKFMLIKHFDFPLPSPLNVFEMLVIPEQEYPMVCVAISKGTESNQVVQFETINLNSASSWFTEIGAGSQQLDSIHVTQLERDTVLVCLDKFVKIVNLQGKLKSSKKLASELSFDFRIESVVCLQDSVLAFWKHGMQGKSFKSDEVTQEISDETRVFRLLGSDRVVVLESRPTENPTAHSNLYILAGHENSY

[24] = biological target: Mitogen-activated protein kinase kinase kinase 1 (Homo sapiens) (UniProt Q13233); test: Inhibition of MAP3K1 (unknown origin) at 1000 nM incubated for 1 hrs by active site-directed competition binding assay relative to control; values are per cent of control
[25] = biological target: Mitogen-activated protein kinase 14 (Homo sapiens) (UniProt Q16539); test: Inhibition of P38alpha (unknown origin) at 1000 nM incubated for 1 hrs by active site-directed competition binding assay relative to control
[26] = biological target: Mitogen-activated protein kinase 8 (Homo sapiens) (UniProt P45983); test: Inhibition of JNK1 (unknown origin) at 1000 nM incubated for 1 hrs by active site-directed competition binding assay relative to control
[27] = biological target: Mitogen-activated protein kinase kinase kinase kinase 2 (Homo sapiens, UniProt Q12851); test: Inhibition of N-terminal GST tagged recombinant human MAP4K2 (1 to 820 residues) expressed in Sf21 insect cells preincubated for 10 min followed by fluorescein PKC and ATP addition and measured after 90 min by Envision2104 Multilabel Reader analysis
[28] = Toxicity against BALB/c mouse […] with mouse CT26 cells assessed as body weight loss at 3 mg/kg, ip administered twice daily and measured on 13 day in presence of presence of anti-PD-1; format: organism-based; settings: in vivo, 312 h
[29] = biological target: T1, Mitogen-activated protein kinase kinase kinase kinase 1; test: Inhibition of human HPK1 at 1000 nM incubated for 1 hrs by active site-directed competition binding assay relative to control; values are per cent of control
Target sequence in this assay (Q92918 whole entry, looked up): as the sequence (Q92918 whole entry) above

[30] = biological target: Mitogen-activated protein kinase 3 (Homo sapiens) (UniProt P27361); test: Inhibition of ERK1 (unknown origin) at 1000 nM incubated for 1 hrs by active site-directed competition binding assay relative to control
CT26 [31] = test: Antitumor activity against mouse CT26 cells allografted in female BALB/c mouse assessed as tumor growth inhibition at 30 mg/kg, administered orally twice daily for 2 weeks; format: functional; settings: CT26, 336 h, route po, read-out: TGI
Homo sapiens = organism: Homo sapiens; test: Inhibition of TAK1 (unknown origin) at 1000 nM incubated for 1 hrs by active site-directed competition binding assay relative to control
Misshapen-like kinase 1 = Misshapen-like kinase 1 (Homo sapiens, UniProt Q8N4C8); test: Inhibition of N-terminal GST-tagged recombinant human MAP4K6 (7 to 139 residues) expressed in Sf21 insect cells preincubated for 10 min followed by fluorescein PKC and ATP addition and measured after 90 min by Envision2104 Multilabel Reader analysis
[32] = Cmax in overnight fasted mouse at 10 mg/kg, po; format: ADME, organism-based; settings: in vivo
[33] = AUC (0 to 24 hrs) in overnight fasted rat at 10 mg/kg, po; format: ADME, organism-based; settings: in vivo
[34] = biological target: Tyrosine-protein kinase Lck (Homo sapiens) (UniProt P06239); test: Inhibition of LCK (unknown origin) at 1000 nM incubated for 1 hrs by active site-directed competition binding assay relative to control; values are per cent of control
Tyrosine-protein kinase Lck (Homo sapiens), sequence (P06239 2-509 limits assumed): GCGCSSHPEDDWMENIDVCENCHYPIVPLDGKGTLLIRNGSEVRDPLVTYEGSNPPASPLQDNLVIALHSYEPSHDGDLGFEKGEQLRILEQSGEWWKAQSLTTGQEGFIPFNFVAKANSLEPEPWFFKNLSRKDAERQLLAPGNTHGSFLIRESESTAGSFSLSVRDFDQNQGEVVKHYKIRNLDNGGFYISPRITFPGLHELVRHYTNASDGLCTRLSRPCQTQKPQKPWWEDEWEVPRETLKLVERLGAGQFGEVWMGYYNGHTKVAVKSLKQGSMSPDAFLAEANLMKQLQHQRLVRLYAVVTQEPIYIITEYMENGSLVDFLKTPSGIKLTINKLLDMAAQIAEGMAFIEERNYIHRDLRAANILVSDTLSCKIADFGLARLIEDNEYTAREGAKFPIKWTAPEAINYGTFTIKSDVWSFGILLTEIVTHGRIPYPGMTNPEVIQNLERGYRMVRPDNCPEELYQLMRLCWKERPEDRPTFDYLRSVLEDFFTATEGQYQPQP

[35] = biological target: Mitogen-activated protein kinase 13 (Homo sapiens) (UniProt O15264); test: Inhibition of P38delta (unknown origin) at 1000 nM incubated for 1 hrs by active site-directed competition binding assay relative to control
[36] = biological target: T1, Mitogen-activated protein kinase kinase kinase kinase 1; test: Inhibition of N-terminal DYKDDDDK recombinant human HPK1 (1 to 346 residues) expressed in Sf21 insect cells preincubated for 10 min followed by fluorescein PKC and ATP addition and measured after 90 min by Envision2104 Multilabel Reader analysis
Target sequence in this assay (Q92918 whole entry): as the sequence (Q92918 whole entry) above

[37] = biological target: Mitogen-activated protein kinase 9 (Homo sapiens) (UniProt P45984); test: Inhibition of JNK2 (unknown origin) at 1000 nM incubated for 1 hrs by active site-directed competition binding assay relative to control
Mitogen-activated protein kinase 9 (Homo sapiens), sequence (P45984 whole entry, looked up): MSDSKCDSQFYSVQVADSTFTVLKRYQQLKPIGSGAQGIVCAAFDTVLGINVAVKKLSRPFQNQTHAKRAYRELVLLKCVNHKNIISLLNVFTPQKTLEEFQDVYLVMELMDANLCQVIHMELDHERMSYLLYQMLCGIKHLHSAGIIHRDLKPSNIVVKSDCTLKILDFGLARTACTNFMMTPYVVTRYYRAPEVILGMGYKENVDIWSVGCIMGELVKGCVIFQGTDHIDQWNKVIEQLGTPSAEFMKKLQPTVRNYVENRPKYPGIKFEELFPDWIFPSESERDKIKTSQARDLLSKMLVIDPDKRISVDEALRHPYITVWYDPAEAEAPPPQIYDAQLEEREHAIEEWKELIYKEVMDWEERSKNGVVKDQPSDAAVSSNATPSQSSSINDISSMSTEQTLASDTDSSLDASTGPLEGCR

[38] = biological target: Mitogen-activated protein kinase kinase kinase kinase 1 (Mus musculus) (UniProt P70218); test: In vivo inhibition of HPK1 in female BALB/c mouse assessed as reduction in SLP76 phosphorylation in spleen at 100 mg/kg qd, ip and measured after 3 hrs post dosing by Western blot analysis relative to control; format: functional, organism-based
[39] = biological target: Calcium/calmodulin-dependent protein kinase type IV (Homo sapiens) (UniProt Q16566); test: Inhibition of CAMK4 (unknown origin) at 1000 nM incubated for 1 hrs by active site-directed competition binding assay relative to control; values are per cent of control
[40] = AUC (0 to 24 hrs) in overnight fasted mouse at 10 mg/kg, po; format: ADME, organism-based; settings: in vivo
[41] = biological target: T1, Mitogen-activated protein kinase kinase kinase kinase 1; test: Inhibition of HPK1 in human T cells assessed as increase in IL-2 secretion measured after 24 hrs by ELISA method; format: cell-based, T-cell; settings: for Activity: T-cell
[42] = biological target: Mitogen-activated protein kinase 12 (Homo sapiens) (UniProt P53778); test: Inhibition of P38gamma (unknown origin) at 1000 nM incubated for 1 hrs by active site-directed competition binding assay relative to control
[43] = biological target: RAC-beta serine/threonine-protein kinase (Homo sapiens) (UniProt P31751); test: Inhibition of AKT2 (unknown origin) at 1000 nM incubated for 1 hrs by active site-directed competition binding assay relative to control; values are per cent of control
[44] = Half life in overnight fasted rat at 1 mg/kg, iv; format: ADME, organism-based; settings: in vivo

Question: With `O=c1[nH]ccc2c(-c3cnc4cc(F)ccn34)ccc(Nc3ccc(C4CCOCC4)c(CN4CC[C@H](F)C4)n3)c12` as the compound, how does the EC50 [1] read?
Answer: 41 nM

Question: What about the inhibition in vivo at 3 mg/kg (CT26 [2]) of the same compound?
Answer: 95%

Question: What about the bioavailability [3] of the same compound?
Answer: 116%

Question: And the bioavailability [4]?
Answer: 80%

Question: And the Activity [5]?
Answer: Non-toxic

Question: What about the inhibition [6] of the same compound?
Answer: 93%

Question: What about the inhibition [7] of the same compound?
Answer: 94%

Question: What about the inhibition [8] of the same compound?
Answer: 85%

Question: What about the Activity [9] of the same compound?
Answer: Non-toxic

Question: What about the inhibition [10] of the same compound?
Answer: 50%

Question: What about the inhibition [11] of the same compound?
Answer: 84%

Question: What about the clearance [12] of the same compound?
Answer: 67 mL/min/kg

Question: What about the Activity [13] of the same compound?
Answer: Non-toxic

Question: What about the Cmax [14] of the same compound?
Answer: 518 ng/mL

Question: And the IC50 [15]?
Answer: 665 nM

Question: And the inhibition [16]?
Answer: 90%

Question: And the IC50 [17]?
Answer: 85 nM

Question: What about the clearance [18] of the same compound?
Answer: 46 mL/min/kg

Question: What about the half-life [19] of the same compound?
Answer: 36 min

Question: And the IC50 [20]?
Answer: 4.74 µM

Question: And the inhibition [21]?
Answer: 69%

Question: And the percent of control [22]?
Answer: 100%

Question: And the IC50 [23]?
Answer: 104 nM

Question: What about the percent of control [24] of the same compound?
Answer: 100%

Question: And the inhibition [25]?
Answer: 94%

Question: What about the inhibition [26] of the same compound?
Answer: 96%

Question: What about the IC50 [27] of the same compound?
Answer: 448 nM

Question: And the Activity [28]?
Answer: Non-toxic

Question: What about the percent of control [29] of the same compound?
Answer: 0.6%

Question: What about the inhibition [30] of the same compound?
Answer: 56%

Question: And the inhibition in vivo at 30 mg/kg (CT26 [31])?
Answer: 42%

Question: And the inhibition (Homo sapiens)?
Answer: 1.5%

Question: And the IC50 (Misshapen-like kinase 1)?
Answer: 168 nM

Question: And the Cmax [32]?
Answer: 1800 ng/mL

Question: And the AUC(0-t) [33]?
Answer: 2010 ng·h/mL

Question: And the percent of control [34]?
Answer: 100%

Question: What about the inhibition [35] of the same compound?
Answer: 62%

Question: What about the IC50 [36] of the same compound?
Answer: 10.4 nM

Question: What about the inhibition [37] of the same compound?
Answer: 86%

Question: What about the inhibition [38] of the same compound?
Answer: 100%

Question: What about the percent of control [39] of the same compound?
Answer: 100%

Question: What about the AUC(0-t) [40] of the same compound?
Answer: 4140 ng·h/mL

Question: What about the EC50 [41] of the same compound?
Answer: 108 nM

Question: What about the Activity [41] of the same compound?
Answer: Dose-dependent-effect

Question: What about the inhibition [42] of the same compound?
Answer: 36%

Question: What about the percent of control [43] of the same compound?
Answer: 100%

Question: And the half-life [44]?
Answer: 48 min

Question: What does the source list for `CN(C)Cc1nc(Nc2ccc(-c3cnc4cc(F)ccn34)c3cn[nH]c(=O)c23)ccc1C1CCOCC1`?
Answer: EC50 [1]: 19.2 nM; bioavailability [3]: 77%; clearance [18]: 263 mL/min/kg; half-life [19]: 12 min; Cmax [32]: 725 ng/mL; IC50 [36]: 6.9 nM; AUC(0-t) [40]: 477 ng·h/mL; EC50 [41]: 123 nM; Activity [41]: Dose-dependent-effect

Question: For `O=C(NCc1nc(Nc2ccc(-c3cnc4cc(F)ccn34)c3cn[nH]c(=O)c23)ccc1C1CCOCC1)NC1CC1`, which IC50 [36] is on record?
Answer: > 1000 nM
